According to patent US5354746A, “Squaric acid derivatives of substituted dibenzoxazepine compounds, pharmaceutical compositions and methods of use” (G. D. Searle & Co., priority 1993, dated 1994):
Where a name gives a salt, the structure may show the parent alone.

Assays:
mice = assay: Writhing Assay (PBQ-induced writhing, analgesic activity in mice); type: in vivo, mouse (Charles River male albino mice); conditions: for WRITHING ASSAY Number Out of Ten (number of mice out of ten in which a test compound produced analgesia): 30 mg per kilogram i.g., 30 min before PBQ i.p., writhes <= one-half median of saline control
Text: The Writhing Assay is one of the most widely-used experimental procedures for measuring the analgesic activity of different narcotic and nonnarcotic analgesic agents, and involves the continuous, chemically-induced pain of visceral origin to an animal, such as a mouse or rat. [Gyires et al., Arch. int. Pharmacodyn, 267, 131-140 (1984); […] al., Fed. Proc., 15, 494 (1956); Koster et al., Fed. Proc., 18, 412 (1959); and Witken et al., J. Pharmacol. exp. Ther., 133, 400-408 (1961).] Chemicals which may be used to induce this pain include phenylbenzoquinone (PBQ) and acetic acid. As a result of the chemical irritation to the animal, a characteristic stretching and writhing of the animal (dorsiflexion of the animal's back, extension of its hindlimbs and the strong contraction of its abdominal musculature) will generally occur. […] Drugs which reduce the number of writhes of the animal appear to restore the normal nociceptive threshold of the animal. […] Charles River male albino mice, weighing 20 to 30 grams, were used in this assay. Thirty minutes after intragastric administration to ten mice of 30 mg per kilogram of body weight of a compound of the present invention ("test compound"), […] of body weight of a 0.025% w/v solution of PBQ was injected intraperitoneally into each mouse. Ten mice which were given saline in place of a test compound of the invention were used as a control group. Five minutes later, each mouse was individually placed into a glass beaker for observation, and the number of writhes occurring during the following ten-minute period was counted. A test compound was considered to have produced analgesia in a mouse if, in accordance with the conditions set forth above, and under the test criteria employed for this assay, after the administration of 30 mg per kilogram of body weight of a compound of the present invention to the mouse, the number of writhes elicited by a mouse injected with PBQ was equal to, or less than, one-half the median number of writhes recorded for the saline-treated control group of mice that day, as described by Taber in "Predictive Value of Analgesic Assays in Mice and Rats," Advances in Biochemical Psychopharmacology, 8, 191 (1974). The results for the particular compounds of the present invention analyzed in this assay, and discussed in the examples identified below which correspond thereto, are presented in Table 1 hereinbelow as fractions under the heading "WRITHING ASSAY." The fractions indicate the number of mice out of ten in which a test compound produced analgesia. The standard initial screening dose of a test compound employed in this assay was […]. If this initial screening dose of the test compound produced analgesia in seven out of ten mice, then the effect of additional doses of the test compound on the writhing response was evaluated, and then the ED50 dose was generally calculated. (The slopes of the dose-response curves for all test compounds analyzed were compared as described by Tallarida and Murray, Manual of Pharmacologic Calculations, Page 11 (Springer Verlag, New York, 1981)). All ED50 doses calculated are also presented in Table 1 hereinbelow under the heading "WRITHING ASSAY," but as whole numbers.

[1] = tested on: prostaglandin E2-induced contractions of segments of guinea pig ileum; assay: Prostaglandin (PGE) Antagonism Assay (inhibition of prostaglandin E2-induced contractions of guinea pig ileum segments); conditions: ratio of prostaglandin E2 EC50 with/without test compound; initial concentration 3 micromolar; 30 min incubation; 37° C.; active if dose ratio >= 2
Method: In order to determine the effectiveness of several of the compounds of the present invention ("test compounds") as prostaglandin E2 antagonists,a prostaglandin antagonism assay was conducted, as described below, to determine the ability of these compounds to inhibit prostaglandin E2 -induced contractions of segments of guinea pig ileum. […] Male albino guinea pigs weighing 200 to 500 grams were sacrificed by cervical dislocation. The ilea were then quickly removed from the guinea pigs and placed in a modified Tyrode solution, a solution which is known to those skilled in the art, containing one-half of the usual amount of magnesium ions. Segments of ileum about 2 cm long were then cut and mounted in a 10 mL tissue bath containing the modified Tyrode solution. The solution was maintained at 37° C. and aerated with a gaseous mixture of 95% oxygen and 5% carbon dioxide. Data for a control prostaglandin E2 dose response curve plotting concentration of prostaglandin E2 versus the intensity of contractions, detected isotonically, was then obtained by experimentally adjusting the dose of the prostaglandin E2 being injected into the tissue bath, in a manner known by those of skill in the art. Solutions or suspensions containing an initial concentration (3 micromolar) of a test compound in modified Tyrode solution ("test solutions/suspensions") were then separately substituted for the control bath solution. Each test solution/suspension was then kept in constant contact with the ileum tissue, except for brief periods to drain the bath in preparation for rinsing with fresh test solution/suspension. A second prostaglandin E2 dose response curve was then generated for prostaglandin E2 in the presence of a test compound. A control dose response curve is produced in isolated segments of guinea pig ileum mounted in an automated apparatus with six concentrations of prostaglandin E2. A solution or suspension of test compound is substituted for the control bathing solution and is incubated for thirty minutes. An additional prostaglandin E2 dose response curve is then performed in the presence of the test compound. A dose ratio is calculated from the EC50 values obtained from duplicate replications on each concentration of the test compound. […] A dose ratio of EC50 doses was calculated from the results of each test in a manner known by those of skill in the art, and described above. A test compound was determined to be "active" if the initial concentration used yielded at least a two-fold shift (dose ratio greater than or equal to 2) in the dose response curve for prostaglandin E2. The compounds of the present invention which were tested in this assay, and for which results are presented in Table 1, correspond to the particular examples specified in Table 1.

CCOC(=O)C1CN(c2c(N3Cc4ccccc4Oc4ccc(Cl)cc43)c(=O)c2=O)CCN1c1ccccc1 (stereo not drawn) [Example 4, Ethyl 4-[2-(8-chlorodibenz[b,f][1,4]oxazepin-10(11H)-yl)-3,4-dioxo-1-cyclobuten-1-yl]-1-phenyl-2-piperazinecarboxylate]
WRITHING ASSAY Number Out of Ten (number of mice out of ten in which a test compound produced analgesia) (mice): 4/10

CN(C)CCNc1c(N2Cc3ccccc3Oc3ccc(Cl)cc32)c(=O)c1=O.Cl [Example 6, 3-(8-Chlorodibenz[b,f][1,4]oxazepin-10(11H)-yl)-4-[[2-(dimethylamino)ethyl]amino]-3-cyclobutene-1,2-dione, hydrochloride]
PGE ANTAGONISM IN GUINEA PIG ILEUM Dose Ratio [1]: 6.8 ± 4.5 | WRITHING ASSAY Number Out of Ten (number of mice out of ten in which a test compound produced analgesia) (mice): 6/10

CCN1CCN(c2c(N3Cc4ccccc4Oc4ccc(Cl)cc43)c(=O)c2=O)CC1 [Example 2, 3-(8-Chlorodibenz[b,f][1,4]oxazepin-10(! ! H)-yl)-4-(4-ethyl-1-piperazinyl)-3-cyclobutene-1,2-dione, monohydrochloride]
PGE ANTAGONISM IN GUINEA PIG ILEUM Dose Ratio [1]: 5.0 ± 2.6 | WRITHING ASSAY Number Out of Ten (number of mice out of ten in which a test compound produced analgesia) (mice): 6/10

Cl.O=c1c(NCc2ccncc2)c(N2Cc3ccccc3Oc3ccc(Cl)cc32)c1=O [Example 7, 3-(8-Chlorodibenz[b,f][1,4]oxazepin-10(11H)-yl)-4-[(4-pyridinylmethyl)amino]-3-cyclobutene-1,2-dione, hydrochloride]
PGE ANTAGONISM IN GUINEA PIG ILEUM Dose Ratio [1]: 22 ± 5 | ED50 (mice; Mus musculus, po, intragastric, PBQ i.p., dose producing analgesia in 50% of the animals, read-out: WRITHING ASSAY ED50 Dose I.G.): 9.7 mg/kg

O=c1c(N2Cc3ccccc3Oc3ccc(Cl)cc32)c(N2Cc3ccccc3Oc3ccc(Cl)cc32)c1=O [Example 8, 3,4-bis[8-chlorodibenz[b,f][1,4]oxazepin-10(11H) -yl]-3-cyclobutene-1,2-dione]
PGE ANTAGONISM IN GUINEA PIG ILEUM Dose Ratio [1]: 1.9 ± 0.9 | WRITHING ASSAY Number Out of Ten (number of mice out of ten in which a test compound produced analgesia) (mice): 6/10
